Test results reported in patent US20110130357A1 (priority 2008, published 2011).
In brackets after ≈: the same amount, converted by molar mass.

Legend:
[1] = system: Klebsiella pneumoniae (ATCC 138883); type: cell-based; settings: 35° C., 12-18 hrs
wheat seedlings = settings: in vivo
screened fungi = assay: MIC against screened fungi (all species); type: cell-based
Ulocladium sp. = assay: MIC against screened fungi
F. graminearum [2] = type: cell-based, Fusarium graminearum; settings: for lethality to F. graminearum: in the range of 500 to 1 μg/mL
Fusarium oxysporium = assay: MIC against screened fungi
[3] = system: Escherichia coli TG1 (pET28a); type: cell-based; settings: 35° C., 12-18 hrs
[4] = system: Enterococcus faecalis (ATCC29212); type: cell-based; settings: 35° C., 12-18 hrs
[5] = system: F. graminearum isolate B-4-5A; type: in vivo, Fusarium graminearum on wheat (Alsen and Frontana cultivars); settings: 30 μg/mL aminoglycoside mixed in inoculum, wheat leaves
[6] = system: Staphylococcus aureus ATCC 25923; type: cell-based; settings: 35° C., 12-18 hrs
F. graminearum [7] = type: cell-based, Fusarium graminearum; settings: PDB+casamino acids containing 0.02, 0.08 or 0.2% (v/v) surfactant
[8] = system: Pseudomonas aeruginosa (ATCC 27853); type: cell-based; settings: 35° C., 12-18 hrs
[9] = system: selected bacterial pathogens; assay: Antibacterial MIC over the selected bacterial pathogens; type: cell-based; settings: read-out: Corresponding MIC values (span over the tested bacteria)
Procedure: The minimum inhibitory concentration of M038 was determined for selected bacterial pathogens. For purposes of the experiments discussed in this paragraph, the minimum inhibitory concentration (MIC) is defined as the minimum concentration of compound needed to inhibit the growth of bacteria. A solution of selected bacteria was inoculated Trypticase Soy broth at 35° C. and incubated for 1-2 hours. Following incubation, the bacterial concentrations were determined, and diluted with broth, if necessary, to an absorption value of 0.08 to 0.1 at 625 nm. The adjusted inoculated medium (100 μL) was diluted with 10 ml broth, and then applied to a 96-well microtiter plate (50 μL). A series of solutions (50 μL each in 2-fold dilution) of M038 was added to the testing wells. The 96-well plate was incubated at 35° C. for 12-18 hrs. The MIC results were repeated at least three times.

## CCCCCCCCO[C@H]1[C@H](O)[C@@H](O)[C@@H](O[C@@H]2[C@@H](O)[C@H](O[C@H]3O[C@H](CN)[C@@H](O)[C@H](O)[C@H]3N)[C@@H](N)C[C@H]2N)O[C@@H]1C [JL038, 6-O-(6-Deoxy-4-O-n-octyl-α-D-glucopyranosyl)neamine]
[1]
  Minimal inhibitory concentration (MIC): 250 μ/mL
Wheat seedlings
  chlorophyll damage (relative chlorophyll content): no chlorophyll damages
  phytotoxicity: no phytotoxicity
  phytotoxicity (chlorosis in the absence of fungal growth): showed phytotoxicity
  phytotoxicity (relative chlorophyll content): phytotoxic
Screened fungi; all screened fungi
  MICs for all species of screened fungi: ≤ 31.3 µg/mL
Ulocladium sp.
  MIC: 7.8 µg/mL (≈ 13.4 µM)
F. graminearum [2]; PDB+casamino acids, 24° C., 72 h, tested range 500 to 1 μg/mL
  MIC (MIC90, concentration required to inhibit 90% of the growth or more): 31.3 µg/mL
Fusarium oxysporium
  MIC: 7.8 µg/mL (≈ 13.4 µM)
[3]
  Minimal inhibitory concentration (MIC): 125-250 μ/mL
[4]
  Minimal inhibitory concentration (MIC): 125-250 μ/mL
[5]
  lesion development / leaf infection by F. graminearum: prevents lesion development
[6]
  Minimal inhibitory concentration (MIC): 250 μ/mL
F. graminearum [7]
  effect of surfactant on in vitro activity (MIC): did not affect
[8]
  Minimal inhibitory concentration (MIC): 250 µg/mL (≈ 431 µM)

## NCC1O[C@H](OC2C(N)CC(N)[C@@H](OC3OCC(O)[C@@H](O)[C@H]3O)[C@H]2O)C(N)[C@@H](O)[C@@H]1O (stereo partly drawn) [JL39]
F. graminearum [2]
  lethality to F. graminearum: not lethal

## NC[C@H]1O[C@H](O[C@H]2[C@H](O)[C@@H](O[C@H]3O[C@H](CO)[C@@H](O)[C@H](N)[C@H]3O)[C@H](N)C[C@@H]2N)[C@H](N)[C@@H](O)[C@@H]1O [kanamycin B, Kanamycin B, reference compound]
Wheat seedlings
  phytotoxicity: phytotoxic
  phytotoxicity (relative chlorophyll content): phytotoxic
[9]
  MIC: 980 to 1950 µg/mL (≈ 2030 to 4030 µM)
Screened fungi; screened fungi of Table 2
  antifungal effectiveness against screened fungi: substantially ineffective
[5]
  lesion development / leaf infection by F. graminearum: did not prevent leaf infection
F. graminearum [7]
  effect of surfactant on in vitro activity (MIC): did not affect

## NCC1O[C@H](OC2C(N)CC(N)[C@@H](OC3OCC(O)[C@@H](N)[C@H]3O)[C@H]2O)C(N)[C@@H](O)[C@@H]1O (stereo partly drawn) [JL40, reference compound]
Wheat seedlings
  phytotoxicity: phytotoxic
  phytotoxicity (relative chlorophyll content): phytotoxic
[5]
  lesion development / leaf infection by F. graminearum: did not prevent leaf infection
F. graminearum [7]
  effect of surfactant on in vitro activity (MIC): did not affect

## NCC1O[C@H](OC2C(N)CC(N)[C@@H](OC3O[C@H](CO)C(O)[C@@H](N)[C@H]3O)[C@H]2O)C(O)[C@@H](O)[C@@H]1O (stereo partly drawn) [kanamycin A, Kanamycin A]
F. graminearum [2]
  lethality to F. graminearum: not lethal
